# Data taken from publication PMC6582257, “Inhibition of Escherichia coli and Bacillus subtilis FtsZ Polymerization and Bacillus subtilis Growth by Dihydroxynaphtyl Aryl Ketones” (Frontiers in Microbiology, 2019).
# Where “and” joins values, the source holds several entries; their conditions need not be identical. Equal values may be shown once. Read-outs that look alike come from different tables or passages of the source.
# Assays:
# EcFtsZ [1] = biological target: T1, EcFtsZ (Escherichia coli, UniProt P0A9A6); assay: GTP induced EcFtsZ polymerization by light scattering (PK/PEP GTP regeneration system); format: biochemical
# T1 construct: made in house; host or cells: E. coli BL21 (DE3)
# T1 sequence (P0A9A6 whole entry): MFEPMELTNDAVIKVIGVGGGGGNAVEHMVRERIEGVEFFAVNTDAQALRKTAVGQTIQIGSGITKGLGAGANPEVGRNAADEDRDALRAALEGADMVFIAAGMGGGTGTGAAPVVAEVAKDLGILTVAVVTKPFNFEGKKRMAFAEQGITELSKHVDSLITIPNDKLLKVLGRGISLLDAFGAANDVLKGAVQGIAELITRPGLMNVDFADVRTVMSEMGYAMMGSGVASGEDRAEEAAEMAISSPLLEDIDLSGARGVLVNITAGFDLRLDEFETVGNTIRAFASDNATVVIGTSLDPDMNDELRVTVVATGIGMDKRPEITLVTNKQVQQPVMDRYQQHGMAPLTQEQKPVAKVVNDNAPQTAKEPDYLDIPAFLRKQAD
# Description: (§1) Polymerization of FtsZ was determined by light scattering. Light scattering was measured on a Perkin Elmer LS 50 spectrofluorimeter, illuminating with light at a wavelength of 350 nm (excitation) and recording at the same wavelength (emission). Excitation and emission bandwidth were 7 nm and a 4% transmittance filter was used in the emission path. Temperature was kept constant at 30°C.
# (§2) Polymerization of FtsZ induced by GTP [with GTP regeneration system PK/PEP (Margalit et al., [2004])] was measured in the absence and the presence of dNAK 4. 12.5 μM FtsZ was pre-incubated in 50 mM HEPES pH 7.3, 50 mM KCl, 10 mM MgCl2, 1% DMSO, and 1 mM PEP. The reaction was started by adding the compound (at the concentration indicated in the figures), 4 units of PK and 1 mM GTP. For each polymerization reaction, a baseline was registered, which corresponds to the light scattering after adding the compound and prior to the induction of polymerization by the addition of GTP and PK.
# BsFtsZ [2] = biological target: T2, BsFtsZ (Bacillus subtilis, UniProt P17865); assay: GTP induced BsFtsZ polymerization by light scattering (PK/PEP GTP regeneration system); format: biochemical
# T2 construct: made in house; host or cells: E. coli DH10B
# T2 sequence (P17865 whole entry): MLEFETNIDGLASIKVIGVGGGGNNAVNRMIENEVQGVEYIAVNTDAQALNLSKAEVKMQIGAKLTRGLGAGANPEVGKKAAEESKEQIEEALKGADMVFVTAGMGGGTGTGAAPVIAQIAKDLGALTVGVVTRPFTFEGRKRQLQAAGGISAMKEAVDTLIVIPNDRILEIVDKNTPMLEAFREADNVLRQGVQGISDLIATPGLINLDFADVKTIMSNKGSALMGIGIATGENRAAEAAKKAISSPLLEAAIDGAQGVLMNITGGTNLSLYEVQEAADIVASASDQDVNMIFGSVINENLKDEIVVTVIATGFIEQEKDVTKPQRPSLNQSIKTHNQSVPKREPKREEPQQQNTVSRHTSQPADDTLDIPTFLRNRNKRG
# Description: as §1, §2
# EcFtsZ [3] = biological target: T1, EcFtsZ; assay: GDP induced EcFtsZ polymerization by light scattering; format: biochemical; conditions: 32 μM compound, 2 mM GDP, 12.5 μM protein
# Description: as §1
# (§3) Polymerization of FtsZ induced by GDP was measured in the absence and the presence of dNAK 4. 12.5 μM FtsZ was pre-incubated in 50 mM HEPES pH 7.3, 50 mM KCl, 10 mM MgCl2, 1% DMSO, and 2 mM GDP. The reaction was started by adding the compound at 32 μM final concentration.
# BsFtsZ [4] = biological target: T2, BsFtsZ; assay: GDP induced BsFtsZ polymerization by light scattering; format: biochemical; conditions: 32 μM compound, 2 mM GDP, 12.5 μM protein
# Description: as §1, §3
# E. coli K12 = assay: Growth curves in liquid Müller-Hinton culture, E. coli; format: cell-based, Escherichia coli; conditions: up to 32 μM, 37°C
# Description: (§4) Cells were grown in liquid culture medium Müller Hinton (MH) in the presence and absence of the compound. MH medium was inoculated with an overnight culture of each strain and grown until an OD600 of 0.6 was reached. Both cultures were then diluted to OD600 of 0.1 and subsequently divided into several cultures, where the controls (without the compound and with DMSO) and different concentrations of dNAK 4 were tested. Each experimental condition was assayed in 250 μL, six times, in a 96-well ELISA plate. The cultures were grown under agitation at 37°C in a plate spectrofluorimeter with absorbance module model TECAN Infinite M200 PRO and the OD600 was automatically registered every 15 min for 24 h.
# B. subtilis [5] = assay: Growth curves in liquid Müller-Hinton culture, B. subtilis; format: cell-based, Bacillus subtilis; conditions: for effective concentration (total growth arrest): liquid culture
# Description: as §4
# Bacillus subtilis BEM54 = assay: Growth inhibition halos on bacterial lawns; format: cell-based; parameters: key to growth inhibition halo: −: Absence (-) or presence (+) of growth inhibition halos on different bacterial lawns; Absence (-) or presence (+) of growth inhibition halos on different bacterial lawns; conditions: for growth inhibition halo: 5 µl, 37°C 5-6 h
# Description: (§5) TABLE SM1. Effect of dNAK 4 tested directly on the growth of different bacterial […]
# (§6) Strains Amount of dNAK 4 in DMSO 30% […]
# (§7) Absence (-) or presence (+) of growth inhibition halos on different bacterial lawns.
# (§8) The bacterial lawns for each strain listed in this Table were prepared as follow:
# (§9) Bacterial cells were grown in Müller-Hinton (MH) media until an OD600 = 0.3. 300 µl of each culture was mixed with 5 ml of MH soft agar and poured into a plate containing 20 ml of MH hard agar. Once cooled, 5 µl of dNAK 4 dissolved in DMSO […]
# (§10) the top agar and incubated at 37°C during 5-6 h until growth inhibition halos were […]
# (§11) growth inhibition halos in any of the strains tested. As positive control the antibiotic minocycline was used. The experiments were performed by triplicate. The bacterial strains used in these experiments belong to our laboratory collection.
# [6] = tested on: Enterobacter aerogenes BEM27; assay: Growth inhibition halos on bacterial lawns; format: cell-based; parameters: key to growth inhibition halo: −: Absence (-) or presence (+) of growth inhibition halos on different bacterial lawns; Absence (-) or presence (+) of growth inhibition halos on different bacterial lawns; conditions: for growth inhibition halo: 5 µl, 37°C 5-6 h
# Description: as §5, §6, §7, §8, §9, §10, §11
# Escherichia coli K12 = assay: Growth inhibition halos on bacterial lawns; format: cell-based; parameters: key to growth inhibition halo: −: Absence (-) or presence (+) of growth inhibition halos on different bacterial lawns; Absence (-) or presence (+) of growth inhibition halos on different bacterial lawns; conditions: for growth inhibition halo: 5 µl, 37°C 5-6 h
# Description: as §5, §6, §7, §8, §9, §10, §11
# Proteus mirabilis BEM87 = assay: Growth inhibition halos on bacterial lawns; format: cell-based; parameters: key to growth inhibition halo: −: Absence (-) or presence (+) of growth inhibition halos on different bacterial lawns; Absence (-) or presence (+) of growth inhibition halos on different bacterial lawns; conditions: for growth inhibition halo: 5 µl, 37°C 5-6 h
# Description: as §5, §6, §7, §8, §9, §10, §11
# [7] = tested on: Pseudomonas aeruginosa BEM12; assay: Growth inhibition halos on bacterial lawns; format: cell-based; parameters: key to growth inhibition halo: −: Absence (-) or presence (+) of growth inhibition halos on different bacterial lawns; Absence (-) or presence (+) of growth inhibition halos on different bacterial lawns; conditions: for growth inhibition halo: 5 µl, 37°C 5-6 h
# Description: as §5, §6, §7, §8, §9, §10, §11
# [8] = tested on: Staphylococcus aureus BEM42; assay: Growth inhibition halos on bacterial lawns; format: cell-based; parameters: key: −: Absence (-) or presence (+) of growth inhibition halos on different bacterial lawns; Absence (-) or presence (+) of growth inhibition halos on different bacterial lawns; conditions: 5 µl, 37°C 5-6 h
# Description: as §5, §6, §7, §8, §9, §10, §11
# E. coli = assay: Live-cell imaging of cell division in CellASIC ONIX2 microfluidic chambers; format: cell-based, Escherichia coli; conditions: LB with 32 μM perfused 8 h, 37°C
# Description: In order to evaluate the effect of dNAK 4 at a cellular level, we designed a live-cell imaging approach using the microfluidics platform CellASIC ONIX2 (Merck) coupled to a Lionheart FX automated microscope (BioTek). This setup allowed us to directly monitor the division of E. coli and B. subtilis cells inside microchambers, under a precisely controlled temperature (37°C) and the continuous perfusion of fresh culture medium. The microscope was set up to take one picture of each chamber every 10 min during the whole experiment (20 h), in order to get a continuous view of the division process occurring in a group of cells and its response to the perfusion of dNAK 4. First, cells of each strain were inoculated into separate microchambers, perfusing LB medium for 4 h while monitoring cell growth. Afterwards, LB supplemented with 32 μM dNAK 4 was perfused during the next 8 h. Finally, LB medium without dNAK 4 was perfused during the last 8 h in order to monitor the effect of washing the compound. […] After washing the compound, some B. subtilis cells seemed to partially recover the ability to divide.
# 2. Live-cell imaging of E. coli and B. subtilis cell division while grown in microfluidic chambers, in the presence or absence of dNAK 4. […]
# B. subtilis [9] = assay: as above; format: cell-based, Bacillus subtilis; conditions: LB with 32 μM perfused 8 h, 37°C
# tubulin = biological target: tubulin; parameters: method as in Gutiérrez et al., 2015; conditions: ref Gutiérrez et al., 2015; cited from earlier work
# normal and cancer cell = tested on: normal and cancer cell; parameters: method as in Benites et al., 2016; conditions: ref Benites et al., 2016; cited from earlier work
# [10] = calculated from the EcFtsZ polymerization inhibition by the compounds, read-out: IFP (inhibition of EcFtsZ polymerization) expressed as IC50
# [11] = at the concentration tested (0.05-2 µg)
compound,measurement,setting,value
O=C(c1cccs1)c1cc(O)c2ccccc2c1O [dNAK 1],IC50,EcFtsZ [1]; [10],100 µM
O=C(c1ccsc1)c1cc(O)c2ccccc2c1O [dNAK 2],IC50,EcFtsZ [1]; [10],44 µM
O=C(c1ccco1)c1cc(O)c2ccccc2c1O [dNAK 3],IC50,EcFtsZ [1]; [10],39 µM
"O=C(c1ccc[nH]1)c1cc(O)c2ccccc2c1O [dNAK 4, (1,4-dihydroxy-naphthalen-2-yl)-(1H-pyrrol-2-yl)-methanone]",IC50,"EcFtsZ [1]; from slope of light scattering increment after depolymerization vs concentration, PK/PEP GTP regeneration system, read-out: IFP expressed as IC50 (converted)",2.3 ± 0.1 µM
same,IC50,"EcFtsZ [1]; from steady-state slope of light scattering increment vs concentration, PK/PEP GTP regeneration system, read-out: IFP expressed as IC50 (converted)",4.6 µM and 4.4 µM
same,IC50,BsFtsZ [2],9.13 ± 0.66 µM
same,polymerization of EcFtsZ with GDP,EcFtsZ [3],induced
same,polymerization of BsFtsZ with GDP,BsFtsZ [4],induced
same,effect on E. coli K12 growth in liquid culture,E. coli K12,no inhibitory effect
same,B. subtilis growth in liquid culture,"B. subtilis [5]; 32 μM, during 16 h, Müller-Hinton, 37°C",no growth
same,effective concentration (total growth arrest),B. subtilis [5],32 µM
same,effective concentration (total growth arrest),B. subtilis [5]; conversion of 32 μM,8 µg/mL
same,growth inhibition halo,Bacillus subtilis BEM54; 0.05 µg in DMSO 30%,−
same,growth inhibition halo,Bacillus subtilis BEM54; 0.1 µg in DMSO 30%,+
same,growth inhibition halo,Bacillus subtilis BEM54; 0.3 µg in DMSO 30%,+
same,growth inhibition halo,Bacillus subtilis BEM54; 0.5 µg in DMSO 30%,+
same,growth inhibition halo,Bacillus subtilis BEM54; 1 µg in DMSO 30%,+
same,growth inhibition halo,Bacillus subtilis BEM54; 2 µg in DMSO 30%,+
same,lowest amount giving growth inhibition in plate assays,"Bacillus subtilis BEM54; bacterial lawn, B. subtilis",0.1 µg
same,growth inhibition halo,[6]; 0.05 µg in DMSO 30%,−
same,growth inhibition halo,[6]; 0.1 µg in DMSO 30%,−
same,growth inhibition halo,[6]; 0.3 µg in DMSO 30%,−
same,growth inhibition halo,[6]; 0.5 µg in DMSO 30%,−
same,growth inhibition halo,[6]; 1 µg in DMSO 30%,−
same,growth inhibition halo,[6]; 2 µg in DMSO 30%,−
same,inhibitory effect in plate assays,[6]; [11],no inhibitory effect
same,growth inhibition halo,Escherichia coli K12; 0.05 µg in DMSO 30%,−
same,growth inhibition halo,Escherichia coli K12; 0.1 µg in DMSO 30%,−
same,growth inhibition halo,Escherichia coli K12; 0.3 µg in DMSO 30%,−
same,growth inhibition halo,Escherichia coli K12; 0.5 µg in DMSO 30%,−
same,growth inhibition halo,Escherichia coli K12; 1 µg in DMSO 30%,−
same,growth inhibition halo,Escherichia coli K12; 2 µg in DMSO 30%,−
same,inhibitory effect in plate assays,Escherichia coli K12; [11],no inhibitory effect
same,growth inhibition halo,Proteus mirabilis BEM87; 0.05 µg in DMSO 30%,−
same,growth inhibition halo,Proteus mirabilis BEM87; 0.1 µg in DMSO 30%,−
same,growth inhibition halo,Proteus mirabilis BEM87; 0.3 µg in DMSO 30%,−
same,growth inhibition halo,Proteus mirabilis BEM87; 0.5 µg in DMSO 30%,+
same,growth inhibition halo,Proteus mirabilis BEM87; 1 µg in DMSO 30%,+
same,growth inhibition halo,Proteus mirabilis BEM87; 2 µg in DMSO 30%,+
same,amount giving growth inhibition in plate assays,"Proteus mirabilis BEM87; bacterial lawn, P. mirabilis",0.3 to 0.5 µg
same,growth inhibition halo,[7]; 0.05 µg in DMSO 30%,−
same,growth inhibition halo,[7]; 0.1 µg in DMSO 30%,−
same,growth inhibition halo,[7]; 0.3 µg in DMSO 30%,+
same,growth inhibition halo,[7]; 0.5 µg in DMSO 30%,+
same,growth inhibition halo,[7]; 1 µg in DMSO 30%,+
same,growth inhibition halo,[7]; 2 µg in DMSO 30%,+
same,amount giving growth inhibition in plate assays,"[7]; bacterial lawn, P. aeruginosa",0.3 to 0.5 µg
same,growth inhibition halo,[8]; 0.05 µg in DMSO 30%,−
same,growth inhibition halo,[8]; 0.1 µg in DMSO 30%,+
same,growth inhibition halo,[8]; 0.3 µg in DMSO 30%,+
same,growth inhibition halo,[8]; 0.5 µg in DMSO 30%,+
same,growth inhibition halo,[8]; 1 µg in DMSO 30%,+
same,growth inhibition halo,[8]; 2 µg in DMSO 30%,+
same,effect on growth of E. coli cells,E. coli,no effect
same,effect on growth of B. subtilis cells,B. subtilis [9],complete growth arrest
same,Kd,tubulin,1.02 ± 0.23 µM
same,effect on normal and cancer cell proliferation,normal and cancer cell,no effect
COc1cc(C(=O)c2cc(O)c3ccccc3c2O)cc(OC)c1OC [dNAK 5],IC50,EcFtsZ [1]; [10],81.5 µM
"O=C(c1ccc[nH]1)c1cc(O)ccc1O [dPAK 4, (2,5-dihydroxy-phenyl)-(1H-pyrrol-2-yl)-methanone]",inhibitory effect over EcFtsZ polymerization,"EcFtsZ [1]; 2-64 µM, 1% DMSO",no inhibitory effect
same,inhibitory effect over BsFtsZ polymerization,"BsFtsZ [2]; 2-64 µM, 1% DMSO",no inhibitory effect
